Results as given in patent US20070232601A1, “Vla-4 Inhibitor” (priority 2004, published 2007).

The compounds below were run against T1, hα4 and β1 integrins (VLA-4) (Homo sapiens, UniProt P05556+P13612) (assay: In vitro evaluation: inhibition of binding of CHO cells expressing hα4 and β1 integrins to Eu3+-hVCAM-1 D1D7-IgG). Conditions: ligand Eu3+-hVCAM-1 D1D7-IgG 2 nM, Ki calculated from IC50.
T1 construct: expressed in transfected cells; host or cells: CHO cells
Method: CHO cells which were forced to be expressed by transduction of hα4 and β1 integrins are seeded (3×10^4 cells/100 μl/well) on a Costar 3599 plate, and cultured for 2 days. A medium is washed with a buffer A* two times, and Eu^3+-hVCAM-1 D1D7-IgG which was diluted with an assay buffer A** to 2 nM is added at 50 μl/well. A test substance which was diluted with 2% DMSO-assay buffer (in the presence or the absence of 6% human serum albumin) is added at 50 μl/well (A solution which was separately diluted is added to a well in which Scatchard analysis is performed), this is stirred with a plate mixer for 5 minutes, and allowed to stand at room temperature for 1 hour. Thereafter, this is washed with a buffer A four times, a potentiating reagent (manufactured by DELFIA) is added at 100 μl/well, this is shaken for 5 minutes using a plate mixer, and a fluorescence intensity is measured with a time-resolved fluorometer (DELFIA Wallac). IC50 (concentration at which binding of CHO cell and Eu^3+-hVCAM-1 D1D7-IgG is inhibited by 50%) of a test substance is obtained from an integration rate obtained from a calculation equation: [(FT−FNS)−(FI−FNS)]/[(FT−FNS)]×100, wherein FT indicates a fluorescence intensity of a well not containing a test substance, FNS indicates a fluorescence intensity of a well not containing a test substance and hVCAM-1 D1D7-IgG, and FI indicates a fluorescence intensity containing a test substance. A Kd value showing strength of binding and Bmax (maximum binding amount) were presumed in a range of 0.06 to 20 nM according to the Scachard analysis method. [formula]
A Ki value was calculated according to the above equation ([L] is ligand concentration)
[* buffer A: 25 mM HEPES (pH 7.5), 150 mM NaCl, 1 mM Ca^2+, 1 mM Mg^2+, 4 mM Mn^2+; ** assay buffer: 25 mM HEPES (pH 7.5), 150 mM NaCl, 1 mM Ca^2+, 1 mM Mg^2+, 4 mM Mn^2+, 0.1% BSA, 20 μM DTPA, with/without 6% ALBUMIN, HUMAN SERUM (C/NA-1653, SIGMA)]

T1 sequence (P13612 34-1032): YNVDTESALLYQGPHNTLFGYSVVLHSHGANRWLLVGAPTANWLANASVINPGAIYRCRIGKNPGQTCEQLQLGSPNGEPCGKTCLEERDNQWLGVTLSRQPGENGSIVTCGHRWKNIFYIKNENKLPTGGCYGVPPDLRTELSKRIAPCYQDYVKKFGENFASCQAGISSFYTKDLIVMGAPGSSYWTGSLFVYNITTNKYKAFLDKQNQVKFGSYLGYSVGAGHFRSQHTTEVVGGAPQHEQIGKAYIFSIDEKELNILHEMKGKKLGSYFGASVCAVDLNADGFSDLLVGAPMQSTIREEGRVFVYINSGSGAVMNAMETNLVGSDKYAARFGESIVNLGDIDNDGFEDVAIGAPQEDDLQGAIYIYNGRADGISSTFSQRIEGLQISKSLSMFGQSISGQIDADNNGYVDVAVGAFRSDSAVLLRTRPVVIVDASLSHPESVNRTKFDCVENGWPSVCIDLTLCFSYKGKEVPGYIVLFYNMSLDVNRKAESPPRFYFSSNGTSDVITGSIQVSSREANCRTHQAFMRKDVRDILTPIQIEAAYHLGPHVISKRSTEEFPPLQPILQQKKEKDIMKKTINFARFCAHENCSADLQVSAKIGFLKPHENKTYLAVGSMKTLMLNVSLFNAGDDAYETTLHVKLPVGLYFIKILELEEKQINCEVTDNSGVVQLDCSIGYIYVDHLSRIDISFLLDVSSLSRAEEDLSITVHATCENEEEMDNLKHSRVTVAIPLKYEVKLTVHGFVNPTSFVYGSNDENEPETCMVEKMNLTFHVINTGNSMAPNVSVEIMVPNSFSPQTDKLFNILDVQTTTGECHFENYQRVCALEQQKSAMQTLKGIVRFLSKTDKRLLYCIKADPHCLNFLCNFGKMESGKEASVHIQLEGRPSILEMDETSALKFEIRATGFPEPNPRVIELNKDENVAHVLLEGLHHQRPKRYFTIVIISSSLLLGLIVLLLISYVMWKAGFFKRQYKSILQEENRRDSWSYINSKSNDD
T1 sequence (P05556 21-798): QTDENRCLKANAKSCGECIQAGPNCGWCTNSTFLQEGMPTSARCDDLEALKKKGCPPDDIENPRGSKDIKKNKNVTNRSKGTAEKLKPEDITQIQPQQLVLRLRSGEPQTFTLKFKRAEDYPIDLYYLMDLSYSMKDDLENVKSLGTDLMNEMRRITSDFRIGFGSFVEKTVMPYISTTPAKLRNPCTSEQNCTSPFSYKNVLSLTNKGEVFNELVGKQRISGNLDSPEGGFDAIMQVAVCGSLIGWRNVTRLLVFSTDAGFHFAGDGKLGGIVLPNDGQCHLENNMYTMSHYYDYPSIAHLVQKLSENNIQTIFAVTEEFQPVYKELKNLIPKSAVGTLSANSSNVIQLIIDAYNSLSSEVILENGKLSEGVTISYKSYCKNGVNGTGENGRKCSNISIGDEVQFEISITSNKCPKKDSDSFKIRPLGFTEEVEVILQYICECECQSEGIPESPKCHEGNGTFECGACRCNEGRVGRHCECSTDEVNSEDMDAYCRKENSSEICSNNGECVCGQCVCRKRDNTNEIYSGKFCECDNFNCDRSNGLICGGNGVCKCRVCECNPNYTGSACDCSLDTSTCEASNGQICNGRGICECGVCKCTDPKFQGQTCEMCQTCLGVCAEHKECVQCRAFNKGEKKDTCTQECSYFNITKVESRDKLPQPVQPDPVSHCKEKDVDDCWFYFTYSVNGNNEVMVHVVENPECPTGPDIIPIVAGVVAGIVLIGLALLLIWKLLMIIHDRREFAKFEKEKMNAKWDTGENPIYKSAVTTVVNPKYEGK

| Compound | Ki |
| --- | --- |
| CCO[C@H]1CCN(C(=O)Cc2cc(Cl)c(NC(=O)c3cn(C)c4ccccc34)cc2Cl)[C@@H]1c1ncc(CCC(=O)O)s1 [Example 92, 3-[2-[1-[[2,5-Dichloro-4-(1-methyl-3-indolylcarbonylamino)phenyl]acetyl]-(3S)-ethoxy-(2S)-pyrrolidinyl]-5-thiazolyl]propionic acid] | 10 nM |
| O=C(O)CCc1cnc([C@@H]2C[C@@H]3CCCC[C@@H]3N2C(=O)Cc2cc(Cl)c(NC(=O)c3csc4ccccc34)cc2F)s1 [Example 61, 3-[2-[1-[4-[(3-Benzo[b]thienylcarbonyl)amino]-5-chloro-2-fluorophenylacetyl]-(2S)-octahydroindolyl]-5-thiazolyl]propionic acid] | 6 nM |
| Cn1cc(C(=O)Nc2cc(Cl)c(CC(=O)N3C[C@@H](F)C[C@H]3c3ncc(CCC(=O)O)s3)cc2Cl)c2ccccc21 [Example 18, 3-[2-[1-[2,5-Dichloro-4-(1-methyl-3-indolylcarbonylamino)phenylacetyl]-(4S)-fluoro-(2S)-pyrrolidinyl]-5-thiazolyl]propionic acid] | 1.1 nM |
| Cn1cc(C(=O)Nc2cc(F)c(CC(=O)N3C[C@@H](OC4CCC4)C[C@H]3c3ncc(CCC(=O)O)s3)cc2Cl)c2ccccc21 [Example 40, 3-[2-[1-[5-Chloro-2-fluoro-4-(1-methyl-3-indolylcarbonyl)aminophenylacetyl]-(4S)-cyclobutoxy-(2S)-pyrrolidinyl]-5-thiazolyl]propionic acid] | 4 nM |
| CC(C)O[C@H]1C[C@@H](c2ncc(CCC(=O)O)s2)N(C(=O)Cc2cc(Cl)c(NC(=O)c3cn(C)c4ccccc34)cc2F)C1 [Example 35, 3-[2-[1-[5-Chloro-2-fluoro-4-(1-methyl-3-indolylcarbonyl)aminophenylacetyl]-(4S)-isopropoxy-(2S)-pyrrolidinyl]-5-thiazolyl]propionic acid] | 3 nM |
| Cn1cc(C(=O)Nc2cc(Cl)c(CC(=O)N3C[C@@H](Oc4cccnc4)C[C@H]3c3ncc(CCC(=O)O)s3)cc2Cl)c2ccccc21 [Example 44, 3-[2-[1-[2,5-Dichloro-4-(1-methyl-3-indolylcarbonylamino)phenylacetyl]-(4S)-(3-pyridyloxy)-(2S)-pyrrolidinyl]-5-thiazolyl]propionic acid] | 3.9 nM |
| Cc1ccc(F)cc1Nc1nc2ccc(CC(=O)N3[C@H](c4ncc(CCC(=O)O)s4)C[C@@H]4CCCC[C@@H]43)c(F)c2o1 [Example 62, 3-[2-[1-[7-Fluoro-2-(5-fluoro-2-methylphenyl)amino-6-benzoxazolylacetyl]-(2S)-octahydroindolyl]-5-thiazolyl]propionic acid] | 2.3 nM |
| Cn1cc(C(=O)Nc2cc(Cl)c(CC(=O)N3C[C@@H](OC4CCC4)C[C@H]3c3ncc(CCC(=O)O)s3)cc2Cl)c2ccccc21 [Example 39, 3-[2-[1-[2,5-Dichloro-4-(1-methyl-3-indolylcarbonylamino)phenylacetyl]-(4S)-cyclobutoxy-(2S)-pyrrolidinyl]-5-thiazolyl]propionic acid] | 6.3 nM |
| CCO[C@H]1CCN(C(=O)Cc2cc(Cl)c(NC(=O)c3csc4ccccc34)cc2Cl)[C@@H]1c1ncc(CCC(=O)O)o1 [Example 100] | 7.7 nM |
| COc1ccccc1Nc1nc2ccc(CC(=O)N3C[C@@H](F)C[C@H]3c3ncc(CCC(=O)O)s3)c(F)c2o1 [Example 23, 3-[2-[1-[[7-Fluoro-2-(2-methoxyphenylamino)-1,3-benzoxazol-6-yl]acetyl]-(4S)-fluoro-(2S)-pyrrolidinyl]-5-thiazolyl]propionic acid] | 0.35 nM |
| COc1ccccc1Nc1nc2ccc(CC(=O)N3C[C@@H](OC)C[C@H]3c3ncc(CCC(=O)O)o3)c(F)c2o1 [Example 17, 3-[2-[1-[[7-Fluoro-2-(2-methoxyphenylamino)-1,3-benzoxazol-6-yl]acetyl]-(4S)-methoxy-(2S)-pyrrolidinyl]-5-oxazolyl]propionic acid] | 15 nM |

Continued by falling Ki, values first:

| Ki | Compound |
| --- | --- |
| 19 nM | O=C(O)CCn1nnc([C@@H]2CCCN2C(=O)Cc2cc(Cl)c(NC(=O)c3csc4ccccc34)cc2F)n1 [Example 126, 3-[5-[1-[[4-[(3-Benzo[b]thiophenylcarbonyl)amino]-5-chloro-2-fluorophenyl]acetyl]-(2S)-pyrrolidinyl]-2H-tetrazol-2-yl]propionic acid] |
| 13 nM | CON(C)[C@H]1C[C@@H](c2ncc(CCC(=O)O)s2)N(C(=O)Cc2cc(Cl)c(NC(=O)c3coc4ccccc34)cc2Cl)C1 [Example 132, 3-[2-[1-[-(3-Benzo[b]furanylcarbonylamino)-2,5-dichlorophenylacetyl]-(4S)—N,O-dimethylhydroxylamino-(2S)-pyrrolidinyl]-5-thiazolyl]propionic acid] |
| 11 nM | CO[C@@H]1C[C@@H](c2ncc(CCC(=O)O)s2)N(C(=O)Cc2cc(Cl)c(Nc3nc4ccccc4s3)cc2Cl)C1 [Example 125] |
| 6.9 nM | CO[C@H]1C[C@@H](c2ncc(CCC(=O)O)s2)N(C(=O)Cc2ccc(Nc3nc4c(Cl)cccc4s3)c(Cl)c2)C1 [Example 114, 3-[2-[1-[4-(4-Chloro-2-benzothiazolyl)amino-3-chlorophenyl]acetyl-(4S)-methoxy-(2S)-pyrrolidinyl]-5-thiazolyl]propionic acid] |
| 6.4 nM | CCO[C@H]1CCN(C(=O)Cc2cc(Cl)c(NC(=O)c3coc4ccccc34)cc2Cl)[C@@H]1c1ncc(CCC(=O)O)s1 [Example 96] |
| 5.9 nM | CC(C)O[C@H]1C[C@@H](c2ncc(CCC(=O)O)s2)N(C(=O)Cc2cc(Cl)c(NC(=O)c3coc4ccccc34)cc2Cl)C1 [Example 37, 3-[2-[1-[4-[(1-Benzofuran-3-ylcarbonyl)amino]-2,5-dichlorophenylacetyl]-(4S)-isopropoxy-(2S)-pyrrolidinyl]5-thiazolyl]propionic acid] |
| 5.3 nM | 3-[2-[1-[4-(3-Benzo[b]thiophenylcarbonyl)amino-5-chloro-2-fluorophenyl]acetyl]-(3S)-ethoxy-(2S)-pyrrolidinyl]-5-oxazolyl]propionic acid methyl ester [Example 99] |
| 4.5 nM | CON(C)[C@H]1C[C@@H](c2ncc(CCC(=O)O)s2)N(C(=O)Cc2cc(Cl)c(NC(=O)c3cn(C)c4ccccc34)cc2F)C1 [Example 127, 3-[2-[1-[5-Chloro-2-fluoro-4-(1-methyl-3-indolylcarbonylamino)phenylacetyl]-(4S)—N,O-dimethylhydroxylamino-(2S)-pyrrolidinyl]-5-thiazolyl]propionic acid] |
| 4.5 nM | CCO[C@H]1CCN(C(=O)Cc2ccc3nc(Nc4ccccc4C)oc3c2)[C@@H]1c1ncc(CCC(=O)O)o1 [Example 104, 3-[2-[1-[[2-(2-Methylphenyl)amino-6-benzoxazolyl]acetyl]-(3S)-ethoxy-(2S)-pyrrolidinyl]-5-oxazolyl]propionic acid] |
| 4.1 nM | CCO[C@H]1CCN(C(=O)Cc2cc(Cl)c(NC(=O)c3cn(C)c4ccccc34)cc2F)[C@@H]1c1ncc(CCC(=O)O)s1 [Example 91, 3-[2-[1-[[5-Chloro-2-fluoro-4-(1-methyl-3-indolylcarbonylamino)phenyl]acetyl]-(3S)-ethoxy-(2S)-pyrrolidinyl]-5-thiazolyl]propionic acid] |
| 2.1 nM | CO[C@H]1C[C@@H](c2cc(CCC(=O)O)on2)N(C(=O)Cc2cc(Cl)c(NC(=O)c3csc4ccccc34)cc2Cl)C1 [Example 32, 3-[3-[1-[[4-[(3-Benzo[b]thienylcarbonyl)amino]-2,5-dichlorophenyl]acetyl]-(4S)-methoxy-(2S)-pyrrolidinyl]-5-isoxazolyl]propionic acid] |
| 1.6 nM | O=C(O)CCc1cnc([C@@H]2[C@@H](O)CCN2C(=O)Cc2cc(Cl)c(NC(=O)c3csc4ccccc34)cc2F)s1 [Example 122] |
| 1.2 nM | Cn1cc(C(=O)Nc2cc(F)c(CC(=O)N3CCC[C@H]3c3ncc(CCC(=O)O)s3)cc2Cl)c2ccccc21 [Example 27, 3-[2-[1-[5-Chloro-2-fluoro-4-(1-methyl-3-indolylcarbonyl)aminophenylacetyl]-(2S)-pyrrolidinyl]-5-thiazolyl]propionic acid] |
| 0.69 nM | O=C(O)CCc1cnc([C@@H]2C[C@H](F)CN2C(=O)Cc2cc(Cl)c(NC(=O)c3csc4ccccc34)cc2Cl)s1 [Example 20, 3-[2-[1-[[4-[(3-Benzo[b]thienylcarbonyl)amino]-2,5-dichlorophenyl]acetyl]-(4S)-fluoro-(2S)-pyrrolidinyl]-5-thiazolyl]propionic acid] |
| 0.34 nM | CO[C@H]1C[C@@H](c2ncc(CCC(=O)O)s2)N(C(=O)Cc2ccc3nc(Nc4cc(F)ccc4C)oc3c2F)C1 [Example 8] |
